Measured values as given in the NIST ThermoML archive (doi:10.1007/s10765-012-1371-1).

Assay: xn = mol fraction of the nth substance listed
Settings: 101 kPa, Liquid

CC(C)CCl [1-chloro-2-methylpropane] + COC(C)(C)C
viscosity [mPa·s]
Settings | 283.15 K | 288.15 K | 293.15 K | 298.15 K | 303.15 K | 308.15 K | 313.15 K
x1 = 0.0492 | 0.3948 | 0.369 | 0.3527 | 0.3369 | 0.3194 | 0.3035 | 0.2885
x1 = 0.0996 | 0.4002 | 0.3742 | 0.3573 | 0.3412 | 0.3237 | 0.3076 | 0.2926
x1 = 0.1979 | 0.4107 | 0.3844 | 0.3664 | 0.3495 | 0.3322 | 0.316 | 0.3005
x1 = 0.3023 | 0.4224 | 0.3957 | 0.3764 | 0.3587 | 0.3412 | 0.3248 | 0.3091
x1 = 0.4027 | 0.4338 | 0.4065 | 0.3861 | 0.3676 | 0.3502 | 0.3335 | 0.3174
x1 = 0.504 | 0.4458 | 0.4178 | 0.396 | 0.3768 | 0.3594 | 0.3424 | 0.3261
x1 = 0.5971 | 0.4574 | 0.4287 | 0.4057 | 0.3856 | 0.3681 | 0.351 | 0.3341
x1 = 0.7036 | 0.4714 | 0.442 | 0.4173 | 0.3962 | 0.3786 | 0.3611 | 0.3437
x1 = 0.8003 | 0.4848 | 0.4547 | 0.4286 | 0.4063 | 0.3886 | 0.3707 | 0.3527
x1 = 0.9031 | 0.5 | 0.4689 | 0.4413 | 0.4179 | 0.3998 | 0.3813 | 0.3626
x1 = 0.9522 | 0.5078 | 0.4763 | 0.4478 | 0.4238 | 0.4054 | 0.3868 | 0.3676
x1 = 1 | 0.5155 | 0.4833 | 0.454 | 0.4296 | 0.4112 | 0.3921 | 0.3726

CCCCCl [1-chlorobutane] + COC(C)(C)C
viscosity [mPa·s]
Settings | 283.15 K | 288.15 K | 293.15 K | 298.15 K | 303.15 K | 308.15 K | 313.15 K
x1 = 0.0499 | 0.395 | 0.369 | 0.3525 | 0.3367 | 0.3193 | 0.3033 | 0.288
x1 = 0.1002 | 0.4003 | 0.3741 | 0.3571 | 0.3409 | 0.3234 | 0.3074 | 0.2915
x1 = 0.2011 | 0.411 | 0.3844 | 0.3663 | 0.3494 | 0.332 | 0.3159 | 0.2991
x1 = 0.302 | 0.4224 | 0.3952 | 0.3758 | 0.3582 | 0.3408 | 0.3247 | 0.3068
x1 = 0.4007 | 0.4339 | 0.4063 | 0.3855 | 0.367 | 0.3498 | 0.3335 | 0.3146
x1 = 0.5026 | 0.4461 | 0.418 | 0.3959 | 0.3765 | 0.3592 | 0.3428 | 0.3229
x1 = 0.6029 | 0.4581 | 0.4295 | 0.4063 | 0.386 | 0.3686 | 0.3519 | 0.3312
x1 = 0.693 | 0.4686 | 0.4396 | 0.4155 | 0.3945 | 0.377 | 0.3605 | 0.3389
x1 = 0.8064 | 0.481 | 0.4518 | 0.4266 | 0.4048 | 0.3876 | 0.371 | 0.3482
x1 = 0.904 | 0.4912 | 0.4616 | 0.4355 | 0.4134 | 0.3966 | 0.3799 | 0.3563
x1 = 0.9509 | 0.4951 | 0.4658 | 0.4392 | 0.4173 | 0.4007 | 0.3841 | 0.3601
x1 = 1 | 0.4993 | 0.4701 | 0.4433 | 0.4214 | 0.405 | 0.3885 | 0.3642
